Entries after “also recorded” stand apart in the source; their conditions may differ.
Key:
ERK [1] = assay: Western blot of phosphorylated ERK in HepG2 cells; assay type: cell-based, human; settings: HepG2, BBR, HDT or CND 20 μg/ml, 2 h
[2] = Body weight, food intake and adverse effects in HFHC-fed hamsters; assay type: in vivo, Golden Syrian hamsters; settings: 24 day treatment, control animals increased by 10%
Experimental: . The body weight of hamsters under a HFHC diet in untreated and drug-treated animals at indicated doses were monitored on alternate days (FIG. 11, Panel A). The food intake within 24 h period were measured 2-3 times a week throughout the entire experiment (FIG. 11, Panel B). The data are means±S.D. of 3 cages per group.
Goldenseal in vivo studies. 42 male Golden Syrian hamsters at 6-8 weeks of age were purchased from the Charles River Laboratories and were housed in cages (3 animals/cage) in an air-conditioned room with a 12 h light cycle. Animals had free access to autoclaved water and food. After one week on a regular rodent chow diet, 36 hamsters were switched to a rodent HFHC diet containing 1.25% cholesterol and 2.2% fat (Product # D12108, Research Diet, Inc., New Brunswick, N.J.) and 6 hamsters were fed a control normal diet containing 0.37% fat and no cholesterol (Product # D12102, Research Diet, Inc.). […]. Berberine Chloride was dissolved in the same vehicle solution. Four hours after the last drug treatment, all animals were sacrificed. Blood samples were collected through cardiac puncture and were analyzed for liver function, kidney function, and blood chemistry at DEXX Laboratories (Palo Alto, Calif.). […] After staining, tissue sections were evaluated by a veterinary pathologist and an experienced scientist independently. […]

HepG2 cells = assay: BBR uptake assay, intracellular fluorescence by FACS in HepG2 cells; settings: HepG2, 5 min incubation, BBR 15 μg/ml
LDLR mRNA [3] = assay: Real-time quantitative RT-PCR of LDLR mRNA expression in HepG2 cells; assay type: cell-based, human; settings: HepG2, 8 h
LDLR mRNA [4] = assay: Northern blot analysis of LDLR mRNA expression in HepG2 cells; assay type: cell-based, human; settings: each alkaloid 20 μg/ml, 8 h
Experimental: . The membrane was stripped and hybridized to a human GAPDH probe. The figure shown is representative of 3 separate studies.
FIG. 2 illustrates the comparison of dose-dependent effects of CND and BBR on LDLR mRNA expression. HepG2 cells were treated with CND or BBR for 8 h at the indicated concentrations and total RNA was isolated for analysis of LDLR mRNA and GAPDH mRNA expression by northern blot (FIG. 2, Panel A) and real-time PCR assays (FIG. 2, Panel B).
(§1) Quantitation of LDLR mRNA expression by northern blot analysis and real-time PCR. Isolation of total RNA and analysis of LDLR and GAPDH mRNA by northern blot were performed as previously described (Liu, J et al. J. Lipid Res. 1997, 38: 2035-2048). Differences in hybridization signals of northern blots were quantitated by a PhosphoImager. For quantitative real-time PCR assays, the reverse transcription was conducted with random primers using M-MLV (Promega) at 37° C. for 1 h in a volume of 25 u.1 containing 1 μg of total RNA. Real-time PCR was performed on the cDNA using ABI Prism 7900-HT Sequence Detection System and Universal MasterMix. The human and hamster LDLR and GAPDH Pre-Developed TaqMan Assay Reagents (Applied Biosystems) were used to assess the mRNA expressions in HepG2 and in hamster livers. The MDR1 mRNA expression in HepG2 cells was assayed similarly using the Pre-Developed probes from Applied Biosystems.
. HPLC/UV-DAD spectroscopic comparisons with standard solutions were used to confirm the presence of BBR, CND, HDT, and HDTN, as well as the absence of PMT. Concentrations of CND and HDT in sample extracts were determined using a single-point calibration and concentrations of BBR in sample extracts were calculated using a standard curve. The identities of BBR, CND, and HDT in extracts were verified further by LC-MS analysis. […]. […]. The results of northern blots were independently confirmed by real-time quantitative RT-PCR (FIG. 1C). […]. […].

[5] = target: MDR1 transporter (pgp-170) (Homo sapiens, UniProt P08183)
LDLR mRNA [6] = assay: Hepatic LDLR mRNA expression in HFHC-fed hamsters (quantitative real-time RT-PCR); assay type: in vivo, Golden Syrian hamsters; settings: BBR 1.8 mg/d, end of 24-day treatment, n=6, p<0.0001
[7] = Measurement of hepatic cholesterol and TG in HFHC-fed hamsters; settings: BBR 1.8 mg/animal/d
ERK [8] = assay: Western blot of phosphorylated ERK in hamster liver; assay type: in vivo, Golden Syrian hamsters; settings: pooled liver samples per treatment group (n=9), HFHC hamsters
DNA = settings: cited from earlier work
[9] = 32 hypercholesterolemic patients, oral, 1 g daily, 3 months; cited from earlier work
LDLR mRNA [10] = assay: LDLR mRNA stability under actinomycin D in HepG2 cells (real-time RT-PCR); assay type: cell-based, human; settings: HepG2, actinomycin D 5 μg/ml 30 min before, BBR or CND 15 μg/ml, 4 h
LDLR promoter = LDLR promoter dual luciferase reporter assay (pLDLR234Luc) in HepG2 cells; assay type: cell-based, human; settings: 8 h
Experimental: FIG. 1E: Analysis of LDLR promoter activity: HepG2 cells were cotransfected with pLDLR234Luc and a normalizing vector pRL-SV40. […] Firefly luciferase and renilla luciferase activities were measured. The data represent normalized LDLR promoter activity.
Transient transfection and dual luciferase reporter assays. HepG2 cells were transfected with plasmid DNA (100 ng/well) by using FuGENE 6 transfection reagent. The DNA ratio of pLDLR234Luc (Li, C et al. J. Biol. Chem. 1999, 274: 6747-6753) to renilla luciferase reporter pRL-SV40 was 90:10. Twenty h after transfection, medium was changed to 0.5% FBS and drugs were added for 8 h prior to cell lysis. The luciferase activity in cell lysate was measured using Dual Luciferase Assay System obtained from Promega. Triplicate wells were assayed for each transfection condition.

MDR1 = MDR1 (Homo sapiens, UniProt P08183); assay: MDR direct dye efflux assay with DiOC2(3) in HepG2 cells; settings: HepG2, co-incubation 2 h, CND 15 μg/ml
Experimental: MDR direct dye efflux assay. The MDR Direct Dye Efflux Assay kit (Cat. No. ECM910, Chemicon International Inc., Temecula, Calif.) was used to measure MDR1 activity. HepG2 cells seeded in 6-well culture plates were incubated in efflux buffer (RPMI+2% BSA) and 1 μg/ml of DiOC2(3) in the absence of presence of tested compounds at 37° C. for 2 h.

LDLR mRNA [11] = assay: LDLR mRNA expression with MDR1 blocked by verapamil or MDR1 siRNA in HepG2 cells (real-time PCR); assay type: cell-based, human
Experimental: as §1, with “Isolation of total RNA and analysis of LDLR and GAPDH mRNA by northern blot were performed as previously described (Liu, J et al. J. Lipid Res. 1997, 38: 2035-2048).” left out
Small interference RNA (siRNA) transfection.

liver cells = assay: Cell survival by MTT (Cell Proliferation Kit I); assay type: cell-based; settings: different concentrations, 18 h
Experimental: The toxicity of CND and BBR were compared using a cell-based assay. Cell survival rate under drug treatments were determined by Cell Proliferation Kit I (MTT) obtained from Roche Applied Sciences (Indianapolis, Ind.). Cells were seeded in 96-well plates at a density of 5×10^3 cells/well/ in 100 μl medium supplemented with 10% FBS at 37° C. and 5% CO2. After 24 h, cells were incubated with fresh medium containing different concentrations of BBR or CND for 18 h. At the end of drug treatment, 10 μl of MTT labeling reagent per well was added to cells to reach a concentration of 0.5 mg/ml. After a 4 h-reaction, 100 μl of solubilization solution was added to each well and the plate was incubated at 37° C. overnight. The sample spectraphotometrical absorbance was measured by a microplate reader at the wavelength of 550 nm. The reading of sample without drug treatment was defined as 100% survival and readings from drug-treated samples were plotted relative to that value. Quadruple wells were used in each culture condition.

MDR1 transporter (pgp-170), sequence (P08183 whole entry): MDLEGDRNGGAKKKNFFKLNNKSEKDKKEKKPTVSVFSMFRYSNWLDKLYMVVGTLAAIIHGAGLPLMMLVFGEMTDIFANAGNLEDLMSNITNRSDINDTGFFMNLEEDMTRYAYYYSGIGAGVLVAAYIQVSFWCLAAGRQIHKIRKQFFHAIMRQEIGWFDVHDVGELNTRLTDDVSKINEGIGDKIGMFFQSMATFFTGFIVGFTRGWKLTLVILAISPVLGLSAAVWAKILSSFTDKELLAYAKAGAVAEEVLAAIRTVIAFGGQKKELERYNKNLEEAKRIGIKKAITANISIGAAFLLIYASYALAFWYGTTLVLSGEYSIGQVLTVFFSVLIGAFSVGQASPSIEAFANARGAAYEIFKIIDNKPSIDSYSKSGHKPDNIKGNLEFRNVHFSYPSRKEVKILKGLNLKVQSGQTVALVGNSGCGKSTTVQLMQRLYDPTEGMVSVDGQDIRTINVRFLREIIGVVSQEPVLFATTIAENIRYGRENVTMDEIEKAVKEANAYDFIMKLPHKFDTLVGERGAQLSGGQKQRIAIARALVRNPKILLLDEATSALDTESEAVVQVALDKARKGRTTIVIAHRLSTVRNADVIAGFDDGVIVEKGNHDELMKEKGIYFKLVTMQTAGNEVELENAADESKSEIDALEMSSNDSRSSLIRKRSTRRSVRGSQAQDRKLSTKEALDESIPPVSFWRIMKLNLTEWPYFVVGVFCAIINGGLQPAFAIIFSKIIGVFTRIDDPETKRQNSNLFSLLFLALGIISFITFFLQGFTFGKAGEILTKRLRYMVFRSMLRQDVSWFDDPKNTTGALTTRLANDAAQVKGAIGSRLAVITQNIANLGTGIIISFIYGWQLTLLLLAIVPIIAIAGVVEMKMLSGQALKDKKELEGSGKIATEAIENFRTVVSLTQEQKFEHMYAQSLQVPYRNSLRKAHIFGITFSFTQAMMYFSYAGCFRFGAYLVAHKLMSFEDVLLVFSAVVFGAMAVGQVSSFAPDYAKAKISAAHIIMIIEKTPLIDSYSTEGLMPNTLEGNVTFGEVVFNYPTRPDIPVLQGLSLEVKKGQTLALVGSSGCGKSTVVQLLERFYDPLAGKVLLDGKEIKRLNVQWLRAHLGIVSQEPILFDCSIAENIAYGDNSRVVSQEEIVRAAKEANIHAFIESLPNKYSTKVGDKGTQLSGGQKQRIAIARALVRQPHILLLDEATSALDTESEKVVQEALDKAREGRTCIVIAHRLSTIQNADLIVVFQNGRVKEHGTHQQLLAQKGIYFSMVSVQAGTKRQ
MDR1, sequence (P08183 whole entry): as above

COc1ccc2cc3[n+](cc2c1OC)CCc1cc2c(cc1-3)OCO2 [BBR, berberine]
ERK phosphorylation (ERK [1]): attributable to CND and BBR
body weights [2]: unchanged
increase of intracellular fluorescent intensity (HepG2 cells): ~2 fold
increase in LDLR mRNA expression (LDLR mRNA [3]; BBR 20 μg/ml): 3 fold
LDLR mRNA expression (northern blot) (LDLR mRNA [4]): strong inducers
increase in BBR uptake in MDR1 siRNA transfected cells compared to mock transfected cells ([5]; human, 2 h, 15 μg/ml): 49%
increase in fluorescent intensity on blocking MDR1 activity with VRMP ([5]; human, 2 h, 15 μg/ml): 49%
increase in hepatic LDLR mRNA expression (LDLR mRNA [6]): 3.7 fold
hepatic TC, % of control [7]: 68.7 % of control
hepatic TG, % of control [7]: 78.3 % of control
levels of phosphorylated ERK in liver (ERK [8]): greatly elevated
DNA binding (DNA): strong DNA binding affinities
reduction of LDL-c [9]: 25%
reduction of plasma total cholesterol (TC) [9]: 29%
reduction of triglyceride (TG) [9]: 35%
side effects [9]: without side effects
LDLR mRNA increase compared to control under transcriptional suppression (LDLR mRNA [10]): ~2.5 fold

COc1ccc2c(c1OC)CN1CCc3cc4c(cc3[C@H]1C2)OCO4 [CND, canadine]
ERK phosphorylation (ERK [1]): attributable to CND and BBR
dose-dependent effect on LDLR mRNA expression, CND compared with BBR (LDLR mRNA [3]; similar concentration ranges, northern blot and real-time RT-PCR): greater activity than BBR; also recorded: more potent inducer of LDLR expression
LDLR promoter activity (LDLR promoter; HepG2, BBR or CND 15 μg/ml): not affected at all
efflux of DiOC2(3) (MDR1): no inhibitory effect
fold increase in activity on LDLR mRNA in the presence of VRMP vs absence (LDLR mRNA [11]; HepG2, 0.6 μM VRMP, 8 h, 3 separate experiments, mean±S.D.): 0.82±0.34 fold
effect of MDR1 siRNA transfection on activity in elevation of LDLR mRNA level (LDLR mRNA [11]; HepG2, siRNA 3 days, drug 6 h): not affected
LDLR mRNA expression (northern blot) (LDLR mRNA [4]): strong inducers
MDR1 substrate status ([5]; inferred from lack of VRMP effect on activity in HepG2): not a substrate of MDR1
DNA binding (DNA): does not bind to DNA
toxicity to liver cells (cell survival, MTT), CND compared with BBR (liver cells): less toxic to liver cells than berberine (BBR)
LDLR mRNA increase compared to control under transcriptional suppression (LDLR mRNA [10]): ~2.5 fold

COc1ccc2c(c1OC)C(=O)O[C@@H]2[C@H]1c2cc3c(cc2CCN1C)OCO3 [HDT, β-hydrastine]
LDLR mRNA expression (northern blot) (LDLR mRNA [4]): no effects

CN1CCc2cc3c(cc2C1O)OCO3 (stereo not shown) [HDTN, hydrastinine]
LDLR mRNA expression (northern blot) (LDLR mRNA [4]): no effects

COc1cc2c(cc1OC)-c1cc3ccc(OC)c(OC)c3c[n+]1CC2 [PMT, palmatine]
LDLR mRNA expression (northern blot) (LDLR mRNA [4]): no regulatory activity on LDLR expression; also recorded: no effects
DNA binding (DNA): strong DNA binding affinities

COc1ccc(CCN(C)CCCC(C#N)(c2ccc(OC)c(OC)c2)C(C)C)cc1OC (stereo not shown) [VRMP, verapamil]
effect of VRMP itself on the LDLR mRNA level (LDLR mRNA [11]): little effect

B1: OM: cytokine oncostatin M, known activator of the LDLR promoter (protein, UniProt P13725 26-221, looked up)
Oncostatin-M: AAIGSCSKEYRVLLGQLQKQTDLMQDTSRLLDPYIRIQGLDVPKLREHCRERPGAFPSEETLRGLGRRGFLQTLNATLGCVLHRLADLEQRLPKAQDLERSGLNIEDLEKLQMARPNILGLRNNIYCMAQLLDNSDTAEPTKAGRGASQPPTPTPASDAFQRKLEGCRFLHGYHRFMHSVGRVFSKWGESPNRSRR
LDLR promoter activity (LDLR promoter; HepG2, OM 50 ng/ml): strongly elevated
